Data published in PMC9097457 (The Journal of Biological Chemistry, 2022).

Columns and labels:
[1] = target: T1, deoxyguanosine kinase (dGK) (Rattus norvegicus, UniProt A0A0G2K478); assay: Tissue-specific phosphorylation of [3H]-dG, [3H]-dA and [3H]-ETV in isolated mitochondria; format: biochemical; settings: 2 h; for dG converted to phosphorylated products: 1 μM
T1 sequence (A0A0G2K478 with tags, fused parts or gaps): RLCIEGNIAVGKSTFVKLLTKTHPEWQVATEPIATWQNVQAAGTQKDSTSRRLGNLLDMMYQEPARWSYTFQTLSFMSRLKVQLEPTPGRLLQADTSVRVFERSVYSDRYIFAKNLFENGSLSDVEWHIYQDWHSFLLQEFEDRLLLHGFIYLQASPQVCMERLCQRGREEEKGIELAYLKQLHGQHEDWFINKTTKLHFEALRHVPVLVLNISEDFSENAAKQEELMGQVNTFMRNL
Method: As noted in the Experimental procedures, these were added together to determine total phosphorylation.
(§1) To measure and compare phosphorylation and kinetics, a stable substrate concentration was necessary and EHNA (5 μM) ([50]) and I-H (2.0 μM) ([49]) were added to all mitochondrial incubations. […] The mitochondria were incubated in vitro for up to 2 h at 37 °C in a shaker bath. At the end of the incubation, reactions were terminated by addition of 10% TCA to an equal volume of incubation mixture (175 μl) and spun in a microcentrifuge to remove precipitates. The supernatant was neutralized with AG 11 A8 resin and filtered through a […] nylon syringe filter. The neutralized and filtered supernatants were analyzed by ultra high pressure liquid chromatography (UPLC). Radioactivity was determined from aliquots of each sample and processed through a Beckman Coulter multipurpose liquid scintillation counter (model 6500).
Extent of phosphorylation was measured and analyzed by UPLC (Agilent 1290) with a reverse-phase C18 column (Zorbax Eclipse Plus C18; 3.0 × 150 mm, 1.8 micron) coupled with an inline diode array to detect UV signal at 254 nm and to an inline liquid scintillation counter (β-Ram) to quantitate radioactivity.
(§2) The radioactivity in each of these peaks was quantitated and totaled to provide the total amount of radioactivity in the phosphorylated products for each labeled precursor. This total was divided by the specific radioactivity of the precursor and expressed as pmol/mg protein/hr. The Kms were calculated from Lineweaver–Burk plots 1/Vo=Km/Vmax[S]+1/Vmax

[2] = target: T1, deoxyguanosine kinase (dGK); assay: Inhibition of [3H]-dA phosphorylation by competing deoxynucleosides in liver mitochondria; format: biochemical; settings: IC50 values at 1 μM substrate
Method: as §1, §2

[3] = target: T1, deoxyguanosine kinase (dGK); assay: Kinetic analysis of [3H]-dG and [3H]-ETV phosphorylation and cross inhibition in heart mitochondria; format: biochemical; settings: absence of ETV, data of Figure 4
Method: as §1, §2

[4] = target: T1, deoxyguanosine kinase (dGK); assay: Kinetic analysis of [3H]-dA phosphorylation in the presence of dG or ETV in liver mitochondria; format: biochemical; settings: 0.12 μM inhibitor, 4 μM dA
Method: as §1

[5] = tested on: heart mitochondria; assay: Conversion of [3H]-dGMP to [3H]-dGTP in isolated heart mitochondria; format: biochemical, rat; settings: 1 μM precursor
Method: Thus, we were interested in determining if the dGTP and dATP phosphorylation pathway in isolated mitochondria functioned similarly.
[^3H]-dGMP (1 μM) or [^3H]-dAMP (1 μM) was incubated in heart mitochondria as described for Figure 1 for the times shown, and their conversion to [^3H]-dGTP and [^3H]-dATP, respectively, determined in the presence and absence of Ap5A ([…]), a competitive inhibitor of adenylate kinase. Data are shown as a box plot of two independent experiments. The thickness of the lines indicates the spread of the duplicates. Ap5A, P1,P5-di(adenosine-5) pentaphosphate pentasodium salt.
as §1

[6] = tested on: isolated rat heart; assay: Phosphorylation of [3H]-ETV, [3H]-dG and [3H]-dA in the isolated perfused rat heart (Langendorff); settings: 60-min perfusion
Method: The phosphorylation of [^3H]-dG, [^3H]-dA, and [^3H]-ETV in isolated mitochondria depends on the activity of the mitochondrial dGK. To determine the degree of phosphorylation in a whole tissue, which would include the activity of the cytosolic dCK, we utilized an isolated rat heart Langendorff retrograde perfusion model. The breakdown and phosphorylation of [^3H]-ETV, [^3H]-dG, and [^3H]-dA (0.5 μM each) was measured in the perfusates and in the hearts after 60 min of perfusion (Fig. 9, A and B). […] However, the heart was still able to take up and maintain a small amount of dG to generate 0.18 ± 0.05 pmol/mg wet heart of phosphorylated dG during the 60-min perfusion. […] Despite the loss of [^3H]-dA from the perfusate, the heart took up and maintained enough dA to produce 0.48 ± 0.08 pmol/mg wet heart of phosphorylated [^3H]-dA products at 60 min (Fig. 9B). […] Note that [^3H]-dG and [^3H]-dG catabolites equilibrate rapidly between the perfusion buffer and the heart, while the phosphorylated forms of [^3H]-dG are retained solely in the heart tissue.
Figure 9 [^3H]-ETV and [^3H]-dG phosphorylation in a perfused rat heart. Rat hearts were removed and perfused using the Langendorff method for 1 h as described in Experimental procedures with 0.5 μM [^3H]-ETV, 0.5 μM [^3H]-dG), or 0.5 μM [^3H]-dA. […] A, the amount of exogenous [^3H]-parent compound in the perfusate as a function of time, plotted as a box plot of three independent experiments. See text for details. B, the amount of phosphorylated [^3H]-ETV, [^3H]-dG, or [^3H]-dA in the heart tissue after 60 min of perfusion with additions as noted in (A). See text for details.
Rat hearts were perfused by Langendorff retrograde perfusion apparatus with [^3H]-dG, [^3H]-dA, or [^3H]-ETV for 60 min under the conditions previously described ([25], [26], [51]). Perfused hearts were snap frozen into wafers by clamping the heart in liquid nitrogen, and the frozen tissue wafers were stored in −80 °C until processed as previously described for ([24]) UPLC analysis.

[7] = tested on: isolated rat heart; assay: Breakdown of the [3H]-parent compound in the perfusate of the isolated perfused rat heart; format: in vitro ADME; settings: 0.5 μM [3H]-dG alone
Method: To determine the degree of phosphorylation in a whole tissue, which would include the activity of the cytosolic dCK, we utilized an isolated rat heart Langendorff retrograde perfusion model.
See text for details. […] See text for details.
Perfused hearts were snap frozen into wafers by clamping the heart in liquid nitrogen, and the frozen tissue wafers were stored in −80 °C until processed as previously described for ([24]) UPLC analysis.

[8] = target: T2, purine nucleoside phosphorylase (PNP) (Rattus norvegicus, UniProt P85973)
T2 sequence (P85973 1-289): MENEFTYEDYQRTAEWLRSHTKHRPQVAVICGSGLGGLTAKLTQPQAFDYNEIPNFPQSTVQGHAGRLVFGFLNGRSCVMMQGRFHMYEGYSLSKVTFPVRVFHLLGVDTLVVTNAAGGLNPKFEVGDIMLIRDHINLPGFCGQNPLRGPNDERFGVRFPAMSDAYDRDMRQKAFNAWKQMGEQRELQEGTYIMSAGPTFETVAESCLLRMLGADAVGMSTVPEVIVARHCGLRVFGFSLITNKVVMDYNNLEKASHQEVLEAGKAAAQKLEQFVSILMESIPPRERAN
Method: To measure and compare phosphorylation and kinetics, a stable substrate concentration was necessary and EHNA (5 μM) ([50]) and I-H (2.0 μM) ([49]) were added to all mitochondrial incubations. […] The mitochondria were incubated in vitro for up to 2 h at 37 °C in a shaker bath. At the end of the incubation, reactions were terminated by addition of 10% TCA to an equal volume of incubation mixture (175 μl) and spun in a microcentrifuge to remove precipitates. The supernatant was neutralized with AG 11 A8 resin and filtered through a 0.2-μM nylon syringe filter. The neutralized and filtered supernatants were analyzed by ultra high pressure liquid chromatography (UPLC). Radioactivity was determined from aliquots of each sample and processed through a Beckman Coulter multipurpose liquid scintillation counter (model 6500).

[9] = tested on: mitochondrial polymerase γ; settings: cited from earlier work

Row | dG phosphorylated more readily than dA ([1]; 1 μM each, brain, heart, kidney, liver mitochondria) | dG converted to phosphorylated products ([1]; heart mitochondria) | dG converted to phosphorylated products ([1]; liver mitochondria) | inhibition of dA phosphorylation more potent than ETV inhibition of dG phosphorylation [2] | rate of [3H]-dG phosphorylation to [3H]-dGTP, control [3] | inhibition of dA phosphorylation [4] | parent compound in the perfusate within 3 min [7] | parent compound in the perfusate, initial level [7] | stability in heart mitochondria ([8]; heart mitochondria, initial studies) | conversion of [3H]-dG to breakdown products ([8]; kidney mitochondria, 60 min, no inhibitor) | Structure (SMILES) | conversion to [3H]-dGTP at the 30-min time point [5] | phosphorylated [3H]-dG in heart ([6]; 0.5 μM [3H]-dG + I-H 2 μM (legend: + I-H and EHNA)) | phosphorylated product in heart ([6]; 0.5 μM labeled compound alone) | parent compound in the perfusate by 60 min [7] | recognition by mitochondrial polymerase γ [9]
1 | 10 fold | 30 pmol/mg mitochondrial protein | 60 pmol/mg mitochondrial protein | 500 fold | 45.9 ± 1.8 pmol/mg protein/hr | nearly completely inhibited | 25 ± 8.8% | 86.8 ± 0.7% | stable | 22% | Nc1nc2c(ncn2[C@H]2C[C@H](O)[C@@H](CO)O2)c(=O)[nH]1 [dG, deoxyguanosine] | 22.4 ± 0.8 pmol/mg protein | 0.57 ± 0.08 pmol/mg wet heart | 0.18 ± 0.05 pmol/mg wet heart | nearly completely converted to catabolites | 
2 |  |  |  |  |  |  |  |  |  |  | C=C1C(COP(=O)(O)OP(=O)(O)OP(=O)(O)O)C(O)CC1n1cnc2c(=O)[nH]c(N)nc21 (stereo not drawn) [ETV-triphosphate] |  |  |  |  | not recognized
